This passage reports IC50 and inhibition results from ChEMBL document CHEMBL5149985, “Discovery of cytotoxic natural products from Red Sea sponges: Structure and synthesis” (Eur J Med Chem, 2021).

For assay [1], the system named is HepG2. The assay is described as follows: cells. Conditions: Homo sapiens.
Description: Anticancer activity against human HepG2 cells assessed as inhibition of cell growth by MTT assay
Assay [2] has as its system KB 3-1. The assay is described as follows: Anticancer activity against human KB 3-1 cells assessed as inhibition in cell growth. It counts as functional, cell-based.
Assay [3] concerns HeLa. Put plainly: Anticancer activity against human HeLa cells assessed as inhibition of cell growth. It counts as functional, cell-based.
The subject of assay [4] is P388. Put plainly: Anticancer activity against mouse P388 cells assessed as cell growth inhibition. In kind it is functional, cell-based.
Assay [5] concerns HepG2. The assay is described as follows: Anticancer activity against human HepG2 cells assessed as inhibition of cell growth incubated for 72 hrs by SRB assay. The following applies: HepG2, 72 h. In kind it is functional, cell-based.
Assay [6] has as its system MCF7. Put plainly: Anticancer activity against human MCF7 cells assessed as inhibition of cell growth incubated for 72 hrs by SRB assay. It counts as functional, cell-based. Conditions: MCF7, 72 h. In general terms: The SRB assay estimates cell density from bound dye.
Assay [7] deals with HCT-116. The assay is described as follows: Anticancer activity against human HCT-116 cells assessed as inhibition of cell growth incubated for 72 hrs by SRB assay. In kind it is functional, cell-based. Conditions: HCT-116, 72 h.
Assay [8] in a line: Inhibition of actin (unknown origin) polymerization incubated for 20 mins in presence of ATP by ELISA analysis. Also noted: species or system Homo sapiens.
Assay [9] can be described thus: Inhibition of actin (unknown origin) polymerization at 100 nM incubated for 20 mins in presence of ATP by ELISA analysis relative to control. The following applies: Homo sapiens. (In general: An ELISA detects its analyte on a solid surface through an enzyme-linked reagent.)
In assay [10] the test system is MDA-MB-231. Put plainly: Anticancer activity against human MDA-MB-231 cells assessed as inhibition of cell growth incubated for 72 hrs by MTT assay. It counts as functional, cell-based. Conditions: MDA-MB-231, 72 h.
For assay [11], the species on record is Homo sapiens. Put plainly: Inhibition of actin (unknown origin) polymerization at 1 uM incubated for 20 mins in presence of ATP by ELISA analysis relative to control.
Assay [12] concerns MCF7. Put plainly: Anticancer activity against human MCF7 cells assessed as inhibition of cell growth incubated for 72 hrs by MTT assay. The following applies: MCF7, 72 h. It counts as functional, cell-based. For orientation: Formazan colour is commonly taken as a measure of viable cells.

Broadly, the IC50 is the point on the concentration scale where inhibition reaches its midpoint. As usually defined, the inhibition is the change of the read-out against control, counted positive when it falls.

In assay [1], `CC[C@@]1(C)CCC[C@]2(C)[C@H]3C[C@H](OC(C)=O)[C@]4(C)CC(C(C)=O)=CC[C@H]4[C@]3(C)CC[C@@H]12` yielded an IC50 of 0.0042 µM.

With `C=C(OO)C(C)CC[C@@]1(C)C(CC[C@H]2[C@]3(C)CC[C@H](O)C(C)(C)O[C@H]3CC[C@@]2(C)O)=C(C)CC[C@H]1O` (some centres not stated), in [2], the IC50 was 0.0046 µM.

`C[C@@H]1CC[C@H]2[C@@H](/C1=C/C[C@H]1[C@]3(C)CCC(=O)C(C)(C)O[C@H]3CC[C@]1(C)O)C(C)(C)CC[C@]2(C)O`: the IC50 in assay [2] was found to be 0.0047 µM.

`C#C/C=C\CCCCCCC#CC#CCCC/C=C\C#CCO` [CALLYSPONGENOL B]: the IC50 in [3] and in assay [4] was 0.0326 µM throughout.

On to `CC1=CC[C@H]2[C@H](CC[C@]2(C)O)C(C)(C)[C@@H]1CC[C@H]1[C@]2(C)CC[C@@H](O)O[C@H]2CC[C@@]1(C)O`, for which, in assay [2], the IC50 was 0.0056 µM.

Take `CC(=O)O[C@H]1C[C@H]2[C@]3(C)CC[C@H]4C(C)(C)CCC[C@]4(C)[C@H]3C[C@@H](O)[C@]2(C)C2=C1C(O)OC2=O` (some centres not stated): the figures for the IC50 in [5], in assay [6] and in [7] were 9.6 µM, 12.7 µM and 3.5 µM, respectively.

As for `CC(C)=CCC[C@@]1(C)C(CC[C@H]2[C@]3(C)CC[C@H](O)C(C)(C)O[C@H]3CC[C@@]2(C)O)=C(C)CC[C@H]1O` [SIPHONELLINOL D], the IC50 in assay [2] is 0.0042 µM.

For the molecule `CO[C@]1([C@@H]2CSC(=O)N2C2CCCC2)C[C@H]2C[C@@H](CC[C@H](C)/C=C\C=C\CC/C(C)=C\C(=O)O2)O1`, the IC50 was determined as 1.05 µM in [8], 5.07 µM in [10] and 5.3 µM in assay [12]. In addition, the inhibition in assay [9] was 20%; in [11], 49%.

Take `COc1ccc(CC(=O)N2C(=O)SC[C@H]2[C@@]2(OC)C[C@H]3C[C@@H](CC[C@H](C)/C=C\C=C\CC/C(C)=C\C(=O)O3)O2)cc1`: the 50% inhibitory concentration (IC50) in assay [8] is over 10 µM; in assay [10] it was 26.2 µM. Moreover, the inhibition turned out to be 0% in [9] and 13% in assay [11].

Consider `CC1=C(CC[C@H]2[C@]3(C)CC[C@H](O)C(C)(C)O[C@H]3CC[C@]2(C)O)[C@@H]2[C@H](CC1=O)[C@@](C)(O)CCC2(C)C` [SIPHOLENOL K], for which the concentration for half-maximal inhibition (IC50) in assay [2] came to 0.0071 µM.

As to `CO[C@H]1NC(=O)C2=C1[C@H](O)C[C@H]1[C@]3(C)CC[C@H]4C(C)(C)CCC[C@]4(C)[C@H]3C[C@@H](OC(C)=O)[C@]21C`, the values for the IC50 in assay [5], in assay [6] and in assay [7] were 25.4 µM, 55.4 µM and 26.5 µM, respectively.

On to `C[C@@H]1C(=O)C[C@H]2[C@@H](/C1=C/C[C@H]1[C@]3(C)CC[C@H](O)C(C)(C)O[C@H]3CC[C@]1(C)O)C(C)(C)CC[C@]2(C)O` [SIPHOLENOL J], for which the IC50 in [2] worked out at 0.0047 µM.

As to `CO[C@H]1C[C@H]2[C@]3(C)CC[C@H]4C(C)(C)CCC[C@]4(C)[C@H]3C[C@@H](OC(C)=O)[C@]2(C)C2=C1[C@@H](O)OC2=O`, the IC50 in assay [5] was 42.5 µM; in [6], 40.3 µM; in [7] it was 22.5 µM.

In the case of `CC(=O)O[C@@H]1C[C@@H]2[C@@]3(C)CCCC(C)(C)[C@@H]3CC[C@@]2(C)[C@@H]2C[C@H](O)C3=C([C@H](O)OC3=O)[C@@]12C`, the IC50 in assay [5] was 21.8 µM; in assay [6], 32.6 µM; in assay [7], 57.5 µM.

Consider `CC1(C)CCC[C@]2(C)[C@H]3C[C@@H](O)[C@]4(C)[C@H](C=O)C(C=O)=CC[C@H]4[C@]3(C)CC[C@@H]12`, for which the results for the IC50 in [5], in assay [6] and in assay [7] were 1.7 µM, 3.3 µM and 3.4 µM, respectively.

Regarding `C#C/C=C\CCCC/C=C\C#CC#CCCC/C=C\C#CCO` [CALLYSPONGENOL C], the results for the IC50 in assay [3] and in assay [4] were 0.0128 µM and 0.0072 µM, respectively.

For `CO[C@]1([C@@H]2CSC(=O)N2C)C[C@H]2C[C@@H](CC[C@H](C)/C=C\C=C\CC/C(C)=C\C(=O)O2)O1`, the figures for the IC50 in [8] and in assay [10] were over 10 µM and 19.9 µM, respectively. Also, the results for the inhibition in assay [9] and in [11] were 11% and 19%, respectively.

In the case of `CC(=O)O[C@H]1C[C@H]2[C@]3(C)CC[C@H]4C(C)(C)CCC[C@]4(C)[C@H]3C[C@@H](O)[C@]2(C)C2=C1COC2=O` [SESTERSTATIN 7], the IC50 in [5] turned out to be 19.2 µM; in assay [6], 24 µM; in [7] it was 26.1 µM.

In the case of `NC(=O)C[C@@]1(O)C=C(Cl)C(=O)C(Br)=C1`, in assay [3], the 50% inhibitory concentration (IC50) is 0.0178 µM.

`C[C@H]1N[C@@H](C(=O)O)Cc2c1[nH]c1ccc(O)cc21` [HYRTIOERECTINE B]: the IC50 in [3] amounted to 0.02 µM.

As to `CC1=C(CC[C@H]2[C@]3(C)CC[C@H](O)C(C)(C)O[C@H]3CC[C@@]2(C)O)[C@](C)(C/C=C/C(C)(C)OO)[C@H](O)CC1`, in assay [2], the IC50 was determined as 0.0039 µM.

With `CC(=O)O[C@@H]1C[C@@H]2[C@@]3(C)CCCC(C)(C)[C@@H]3CC[C@@]2(C)[C@@H]2CCC3=C(C(=O)OC3)[C@@]12C`, the IC50 worked out at 17.3 µM in assay [5], 30.7 µM in assay [6] and 14.4 µM in [7].

As to `CC1=C(CC[C@H]2[C@]3(C)CC[C@H](O)C(C)(C)O[C@H]3CC[C@]2(C)O)[C@@H]2[C@H](CC1OO)[C@@](C)(O)CCC2(C)C` (some centres not stated), the IC50 in assay [2] stood at 0.0047 µM.

With `O=C(O)C(=O)c1c(-c2c[nH]c3cc(O)ccc23)ncc2[nH]c3ccc(O)cc3c12`, the IC50 in [3] was 0.026 µM.

For `CCN1C(=O)SC[C@H]1[C@@]1(OC)C[C@H]2C[C@@H](CC[C@H](C)/C=C\C=C\CC/C(C)=C\C(=O)O2)O1`, the IC50 in [8] is over 10 µM; in [10] it was over 50 µM. The figures for the inhibition in [9] and in assay [11] were 0% and 18%, respectively.

As for `CO[C@]1([C@@H]2CSC(=O)N2CCCO)C[C@H]2C[C@@H](CC[C@H](C)/C=C\C=C\CC/C(C)=C\C(=O)O2)O1`, the IC50 in assay [8] was 8.55 µM; in assay [10], over 50 µM. In addition, the inhibition amounted to 0% in [9] and 21% in assay [11].

As to `NC(=O)Cc1cc(Br)c(O)c(Br)c1O`, the concentration for half-maximal inhibition (IC50) in assay [4] was 0.0067 µM.

For `O=C(O)[C@H](O)Cc1c[nH]c2ccc(O)cc12` [HYRTIOERECTINE C], the IC50 in assay [3] came to 0.02 µM.

As to `CC(=O)O[C@@H]1C[C@@H]2[C@@]3(C)CCCC(C)(C)[C@@H]3CC[C@@]2(C)[C@@H]2CC=C3C(=O)OCC3[C@@]12C` (some centres not stated), the IC50 in assay [5] is 15.5 µM; in assay [6] it was 20.9 µM; in assay [7], 15.4 µM.

As to `CC1(C)CCC[C@]2(C)[C@H]3C[C@@H](O)[C@]4(C)[C@@H](C=O)C(C=O)=CC[C@H]4[C@]3(C)CC[C@@H]12`, the half-inhibitory concentration (IC50) stood at 23.4 µM in assay [5], 36 µM in assay [6] and 27.1 µM in assay [7].

On to `C#C/C=C\CCCCC#CC#CC#CCCC/C=C\C#CCO` [DEHYDROISOPHONOCHALYNOL], for which the IC50 in [3] worked out at 0.0169 µM; in [4], 0.0073 µM.

`CO[C@]1([C@@H]2CSC(=O)N2)C[C@H]2C[C@@H](CC[C@H](C)/C=C\C=C\CC/C(C)=C\C(=O)O2)O1`: the IC50 stood at 9.23 µM in assay [8] and 23.4 µM in assay [10]. The inhibition in assay [9] was 6%; in [11], 21%.
